Data on 2 compounds can be found in article PMC3145970, “Specific CLK Inhibitors from a Novel Chemotype for Regulation of Alternative Splicing” (Chemistry & Biology, 2011).

As usually defined, the IC50 is the concentration that inhibits the measured activity by half. Lower therefore signals greater potency in that assay.

SMILES strings stand for the structures. Entries after “also recorded” stand apart in the source; their conditions may differ.

In assay [1] the test system is flTF and asHTF mRNA in HMEC-1 cells. In words: TF isoform mRNA expression (RT-PCR).
Method: For inhibition experiments, HMEC-1 endothelial cells were switched to EC basal medium (without fetal calf serum) for 1 hr. […] Analysis of the TF isoform mRNA expression was done 1 hr post stimulation with TNF-α and assessment of the phosphorylation state of SR proteins by western blotting was performed 2 min post induction of the cells. Positive controls were stimulated only with TNF-α, and negative controls were untreated.
The subject of assay [2] is phosphorylated SR proteins in HMEC-1 cells. In words: SR protein phosphorylation, western blotting. The class given is cell-based, human. As to the method: Western blot analysis of samples from cell lysates of inhibited, stimulated, and unstimulated HMEC-1 cells were performed as previously described ([Szotowski et al., 2005]). For detection of phosphorylated SR proteins, monoclonal antibody mAb1H4 (Invitrogen GmbH, Karlsruhe, Germany) was used.

Another assay addresses T1, CLK1 (Homo sapiens, UniProt P49759).
T1 construct: the kinase domains of human CLK1 (residues: 148–484 (C terminus)); hexahistidine tag (TEV-cleavable) (cleaved yes); made in house; host or cells: E. coli BL21(DE3)
As to the kind of experiment: Coupled-enzyme (PK/LDH) kinase inhibition assay. The class given is biochemical. Particulars: 0.1 mM ATP, 25°C; average from three independent experiments. On the procedure: The consensus peptide for CLK1 ([…]) and the DYRK1A substrate peptide ([…]-amide) were used as substrates at a concentration of 100 μM. Inhibitors, dissolved in DMSO, were added at the beginning of the preincubation period resulting in a final DMSO concentration of 2% in the assay. Kinetic analysis was performed by nonlinear regression fitting using GraphPad Prism 5 and least-squares fits to sigmoidal dose response curves with variable slope equation: Y=min+max−min/1+10^(logEC50−x)Hillslope, where max and min corresponds to maximal and minimal absorbance value.

T1 sequence (P49759 148-484): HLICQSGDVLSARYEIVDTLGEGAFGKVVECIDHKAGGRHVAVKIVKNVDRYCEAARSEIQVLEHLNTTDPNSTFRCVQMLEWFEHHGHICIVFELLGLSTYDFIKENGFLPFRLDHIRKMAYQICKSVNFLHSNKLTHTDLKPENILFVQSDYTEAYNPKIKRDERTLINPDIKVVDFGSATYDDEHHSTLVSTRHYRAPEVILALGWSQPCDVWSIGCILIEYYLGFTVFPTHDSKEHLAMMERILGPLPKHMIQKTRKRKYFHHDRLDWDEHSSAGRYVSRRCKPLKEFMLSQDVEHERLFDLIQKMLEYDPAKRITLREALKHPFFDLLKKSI

As for `CCN1/C(=C/C(C)=O)Sc2ccc(OC)cc21` [TG003], in assay [1] (HMEC-1, 10 μM inhibitor, 10 ng/ml TNF-α, 1 hr post stimulation), the “TNF-α-induced mRNA expression of flTF and asHTF” value is “only slightly reduced mRNA expression in TNF-α-induced cells”. Also, the “Basal mRNA expression of flTF and asHTF” value in assay [1] (resting HMEC-1, 10 μM inhibitor) was “reduced the basal expression of flTF and asHTF mRNA”. Also, in assay [2] (HMEC-1, 10 μM inhibitor pretreatment, 10 ng/ml TNF-α, 2 min post stimulation), the “TNF-α-induced phosphorylation of SR proteins” value was “reduction of the TNF-α-induced increase in phosphorylation of all analyzed SR proteins”. Also, the “Phosphorylation state of SR proteins, nonstimulated cells” value in assay [2] (HMEC-1, 10 μM inhibitor, basal conditions) is “only reduced the phosphorylation of SRp20; also recorded: no effect on the phosphorylation state of other SR proteins”. In assay [2] (TNF-α-stimulated HMEC-1, increasing inhibitor concentration), the “Dose response of SRp75 and SRp55 phosphorylation” value was “little effect on SRp75 and SRp55 phosphorylation”.

Turning to `Nc1nc(Nc2ccc(S(N)(=O)=O)cc2)nn1C(=S)Nc1c(F)cccc1F` [K00546], the half-inhibitory concentration (IC50) on CLK1 stood at 8.9 ± 3 nM.
